Experimental data as given in the supplement of paper PMC10307832.

Key:
Experiment in all cases: relative viability (nuclei count vs DMSO), 5 days (fraction); higher = more cells survive
[1] = compound: C1=CC=C(C(=C1)C2=CC=C(C=C2)C3=CSC4=C3C(=C(C(=O)N4)C#N)O)O + CC(=O)Nc1cccc(-n2c(=O)n(C3CC3)c(=O)c3c(Nc4ccc(I)cc4F)n(C)c(=O)c(C)c32)c1 [Trametinib] (partner 0.02 µM)
Summary of the method: (§1)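 Lung cancer cell lines were pin-tool dosed in 1536-well plates on the day after seeding, with either a lone drug or a fixed anchor-drug dose plus five library-drug doses (not always all listed) in √10 steps. Nuclei were counted on 4× images after 5 days. Relative viability is the ratio of treated-well to vehicle-well nuclei counts, with each value a median of duplicate plates.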

TGX 221 + Trametinib = compound: CC1=CN2C(=O)C=C(N=C2C(=C1)C(C)NC3=CC=CC=C3)N4CCOCC4 [TGX 221] + CC(=O)Nc1cccc(-n2c(=O)n(C3CC3)c(=O)c3c(Nc4ccc(I)cc4F)n(C)c(=O)c(C)c32)c1 [Trametinib] (partner 0.02 µM)
Summary of the method: as §1

Ricolinostat + AZD7762 = compound: O=C(CCCCCCNC(=O)c1cnc(N(c2ccccc2)c2ccccc2)nc1)NO [Ricolinostat] + NC(=O)Nc1cc(-c2cccc(F)c2)sc1C(=O)N[C@H]1CCCNC1 [AZD7762] (partner 0.2 µM)
Summary of the method: as §1

Ricolinostat + Olaparib = compound: O=C(CCCCCCNC(=O)c1cnc(N(c2ccccc2)c2ccccc2)nc1)NO [Ricolinostat] + O=C(c1cc(Cc2n[nH]c(=O)c3ccccc23)ccc1F)N1CCN(C(=O)C2CC2)CC1 [Olaparib] (partner 8 µM)
Summary of the method: as §1

Row | Cell Line | relative viability ([1]; first compound 0.08 µM) | relative viability ([1]; first compound 0.253 µM) | relative viability ([1]; first compound 0.8 µM) | relative viability ([1]; first compound 2.53 µM) | relative viability ([1]; first compound 8 µM) | relative viability (TGX 221 + Trametinib; first compound 0.08 µM) | relative viability (TGX 221 + Trametinib; first compound 0.253 µM) | relative viability (TGX 221 + Trametinib; first compound 0.8 µM) | relative viability (TGX 221 + Trametinib; first compound 2.53 µM) | relative viability (TGX 221 + Trametinib; first compound 8 µM) | relative viability (Ricolinostat + AZD7762; first compound 0.08 µM) | relative viability (Ricolinostat + AZD7762; first compound 0.253 µM) | relative viability (Ricolinostat + AZD7762; first compound 0.8 µM) | relative viability (Ricolinostat + AZD7762; first compound 2.53 µM) | relative viability (Ricolinostat + Olaparib; first compound 0.08 µM) | relative viability (Ricolinostat + Olaparib; first compound 0.253 µM) | relative viability (Ricolinostat + Olaparib; first compound 0.8 µM) | relative viability (Ricolinostat + Olaparib; first compound 2.53 µM)
1 | NCI-H1975 | 0.348 | 0.412 | 0.337 | 0.311 | 0.345 | 0.313 | 0.414 | 0.356 | 0.289 | 0.272 | 0.66 | 0.768 | 0.592 | 0.705 | 0.85 | 0.768 | 0.713 | 0.643
2 | NCI-H2347 | 0.287 | 0.304 | 0.243 | 0.255 | 0.286 | 0.23 | 0.258 | 0.265 | 0.304 | 0.213 | 0.57 | 0.718 | 0.665 | 0.478 | 0.51 | 0.604 | 0.612 | 0.586
3 | RERF-LC-KJ | 0.988 | 0.908 | 0.917 | 0.878 | 0.834 | 0.686 | 0.756 | 0.83 | 0.775 | 0.753 | 0.864 | 0.916 | 0.832 | 0.894 | 0.897 | 0.894 | 0.773 | 0.582
4 | BEN | 1.13 | 1.08 | 1.01 | 0.967 | 1.02 | 1.03 | 0.969 | 0.93 | 0.998 | 0.891 | 0.534 | 0.754 | 0.559 | 0.576 | 1.05 | 0.995 | 0.999 | 1.02
5 | NCI-H358 | 0.13 | 0.149 | 0.131 | 0.135 | 0.14 | 0.13 | 0.127 | 0.153 | 0.132 | 0.132 | – | 0.519 | 0.414 | 0.312 | 0.444 | 0.57 | 0.61 | 0.652
6 | NCI-H1944 | 0.459 | 0.396 | 0.357 | 0.423 | 0.434 | – | 0.367 | 0.327 | 0.401 | 0.32 | 0.463 | 0.483 | 0.354 | 0.21 | 0.404 | 0.369 | 0.308 | 0.296
7 | 201T | 0.734 | 0.744 | 0.737 | 0.734 | 0.832 | 0.704 | 0.728 | 0.703 | 0.703 | 0.697 | 0.607 | 0.657 | 0.645 | 0.541 | 0.785 | 0.845 | 0.891 | 0.806
8 | NCI-H647 | – | 0.422 | 0.57 | 0.493 | 0.25 | 0.436 | 0.375 | 0.355 | 0.247 | 0.297 | 0.35 | 0.359 | 0.322 | 0.241 | 0.446 | 0.521 | 0.465 | 0.261
9 | NCI-H441 | 0.35 | 0.443 | 0.431 | 0.496 | 0.362 | 0.416 | 0.473 | 0.45 | 0.371 | 0.354 | 0.982 | 1.06 | 0.924 | 0.801 | 0.575 | 0.471 | 0.478 | 0.455
10 | PC-3 [JPC-3] | 0.756 | 0.789 | 0.683 | 0.701 | 0.692 | 0.662 | 0.701 | 0.668 | 0.595 | 0.571 | 0.54 | 0.695 | 0.679 | 0.665 | 0.865 | 1.06 | 1.07 | 0.971
11 | NCI-H2126 | 0.611 | 0.51 | 0.571 | 0.54 | 0.476 | 0.535 | 0.441 | 0.568 | 0.547 | 0.56 | 0.865 | 1.04 | 0.971 | 0.887 | 0.789 | 0.889 | 0.93 | 0.851
12 | HCC-15 | 0.39 | 0.369 | 0.409 | 0.427 | 0.358 | 0.373 | 0.335 | 0.368 | 0.376 | 0.337 | 1.09 | 1.11 | 1.37 | 1.29 | 0.669 | 0.57 | 0.64 | 0.59
13 | NCI-H2085 | 0.55 | 0.772 | 0.615 | 0.484 | 0.598 | 0.505 | 0.351 | 0.374 | 0.286 | 0.276 | – | 0.912 | 0.934 | 0.784 | – | 0.734 | 0.764 | 0.791
14 | LOU-NH91 | 0.778 | 0.865 | 0.794 | 0.753 | 0.705 | 0.818 | 0.741 | 0.756 | 0.774 | 0.709 | – | 0.788 | 0.796 | 0.739 | – | 0.883 | 0.905 | 0.858
15 | NCI-H3122 | 0.289 | 0.233 | 0.223 | 0.253 | 0.295 | 0.244 | 0.188 | 0.224 | 0.211 | 0.257 | 0.838 | 1.03 | 1.01 | 1.12 | 0.571 | 0.618 | 0.54 | 0.55
16 | HOP-62 | 0.38 | 0.431 | 0.41 | 0.378 | 0.337 | 0.386 | 0.351 | 0.338 | 0.252 | 0.298 | 0.352 | 0.521 | 0.53 | 0.277 | 0.516 | 0.408 | 0.31 | 0.394
17 | LCLC-103H | 0.729 | 0.618 | 0.682 | 0.632 | 0.62 | 0.65 | 0.639 | 0.626 | 0.683 | 0.651 | 0.694 | 0.754 | 0.749 | 0.626 | 0.675 | 0.655 | 0.771 | 0.743
18 | LU99A | 0.566 | 0.589 | 0.596 | 0.585 | 0.605 | 0.507 | 0.479 | 0.557 | 0.505 | 0.493 | 0.324 | 0.378 | 0.253 | 0.159 | 0.281 | 0.255 | 0.206 | 0.175
